We go through 3 compounds from patent US11141413B2, “Method of treating renal cell carcinoma using N-(4-(6,7-dimethoxyquinolin-4-yloxy)phenyl)-N′-(4-fluorophenyl)cyclopropane-1,1-dicarboxamide, (2S)-hydroxybutanedioate” (Exelixis, Inc., priority 2016, dated 2021).

Data set [1] deals with advanced renal cell carcinoma. As to conditions: nivolumab study; cited from earlier work.
Data set [2] concerns metastatic renal cell carcinoma (mRCC). Description: CABOSUN (ALLIANCE A031203) trial, cabozantinib vs sunitinib as initial targeted therapy. The protocol: Pts were randomized 1:1 to receive Cabo (60 mg QD) or Sun (50 mg QD, 4 weeks on/2 weeks off). Pts were stratified by the IMDC risk groups (intermediate vs. poor risk) and bone metastasis (yes, no). […] Secondary endpoints included OS, investigator-assessed overall response rate (ORR), and toxicity. The Kaplan-Meier product-limit estimator was used to estimate the OS between treatment arms.

Data set [3] is described as follows: Solubility in aqueous media. The format is physicochemical.

Take nivolumab: the “Hazard ratio for death vs everolimus” value in data set [1] was 0.73.

In the case of `CCN(CC)CCNC(=O)c1c(C)[nH]c(/C=C2\C(=O)Nc3ccc(F)cc32)c1C` [sunitinib, reference compound], in data set [2] (human, in vivo), the “All-causality grade 3 or 4 adverse events” value was found to be 68%; the “Diarrhea, grade 3 or 4” value is given as “I1%”; the “Fatigue, grade 3 or 4” value is reported as 15%; the “Hematologic adverse events, grade 3 or 4” value stood at 22%. For the same compound, in data set [2] (human, in vivo), the “Hypertension, grade 3 or 4” value is on record as 22% and the “Palmar-plantar erythrodysesthesia, grade 3 or 4” value stood at 4%. Further, in data set [2] (in vivo), the “Median OS” value was 21.8 months and the ORR was found to be 18%. Also, in data set [2] (untreated mRCC, intermediate or poor risk), the “Median PFS” value was 5.6 months.

For the compound `COc1cc2nccc(Oc3ccc(NC(=O)C4(C(=O)Nc5ccc(F)cc5)CC4)cc3)c2cc1OC.O=C(O)C[C@H](O)C(=O)O` [Cabozantinib (S)-malate salt, N-(4-(6,7-dimethoxyquinolin-4-yloxy)phenyl)-N′-(4-fluorophenyl)cyclopropane-1,1-dicarboxamide, (2S)-hydroxybutanedioate], the “Solubility in aqueous media” value in data set [3] is “practically insoluble in aqueous media”.
